Measured values: patent publication US20240109853A1 (Shanghai Yao Yuan Biotechnology Co., Ltd., priority 2020, published 2024)

These compounds were tested against ALPK1 (Homo sapiens (Human), UniProt Q96QP1) (assay: ALPK1 in vitro kinase assay (HTRF of TIFA phosphorylation)). Settings: not given.
ALPK1, sequence (Q96QP1 whole entry): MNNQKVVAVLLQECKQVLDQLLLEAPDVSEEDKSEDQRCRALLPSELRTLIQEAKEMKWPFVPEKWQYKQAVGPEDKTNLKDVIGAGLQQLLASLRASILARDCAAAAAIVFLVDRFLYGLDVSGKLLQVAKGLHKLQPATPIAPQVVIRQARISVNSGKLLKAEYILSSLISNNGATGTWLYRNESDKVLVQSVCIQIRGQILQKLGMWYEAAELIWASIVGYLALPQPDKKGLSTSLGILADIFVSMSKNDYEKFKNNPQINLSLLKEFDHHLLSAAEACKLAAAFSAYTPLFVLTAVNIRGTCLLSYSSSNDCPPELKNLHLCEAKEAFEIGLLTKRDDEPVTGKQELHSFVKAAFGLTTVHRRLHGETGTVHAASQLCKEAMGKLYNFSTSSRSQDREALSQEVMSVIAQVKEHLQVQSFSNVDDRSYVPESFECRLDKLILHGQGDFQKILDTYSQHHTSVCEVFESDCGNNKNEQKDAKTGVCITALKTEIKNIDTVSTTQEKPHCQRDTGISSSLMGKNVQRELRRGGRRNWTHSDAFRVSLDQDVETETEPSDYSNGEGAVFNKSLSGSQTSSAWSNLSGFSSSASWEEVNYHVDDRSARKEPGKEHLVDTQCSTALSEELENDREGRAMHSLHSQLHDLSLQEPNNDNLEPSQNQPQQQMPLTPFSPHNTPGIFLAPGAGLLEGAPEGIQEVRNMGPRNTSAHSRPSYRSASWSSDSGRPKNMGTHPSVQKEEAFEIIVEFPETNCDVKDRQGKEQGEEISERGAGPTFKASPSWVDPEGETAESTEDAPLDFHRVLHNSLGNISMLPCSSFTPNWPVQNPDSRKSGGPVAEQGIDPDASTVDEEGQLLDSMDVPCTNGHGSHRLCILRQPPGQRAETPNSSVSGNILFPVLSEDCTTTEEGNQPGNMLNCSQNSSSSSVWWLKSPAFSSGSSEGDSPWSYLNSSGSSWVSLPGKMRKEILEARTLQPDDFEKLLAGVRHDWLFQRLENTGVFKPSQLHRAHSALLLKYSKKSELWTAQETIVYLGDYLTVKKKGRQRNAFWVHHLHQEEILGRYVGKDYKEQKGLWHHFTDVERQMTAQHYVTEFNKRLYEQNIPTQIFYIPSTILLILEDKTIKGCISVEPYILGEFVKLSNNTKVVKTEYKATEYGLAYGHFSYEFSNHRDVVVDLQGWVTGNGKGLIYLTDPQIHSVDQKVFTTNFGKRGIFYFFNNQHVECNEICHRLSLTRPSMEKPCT
Format: biochemical
Excerpt: In embodiments, a compound of Formula I, or a subembodiment described herein, is an inhibitor of ALPK1 as measured, for example, in an in vitro kinase assay, or an assay designed to measure the activation of downstream targets of ALPK1 pathway activation, for example NFkB transcriptional activation and the secretion of proinflammatory cytokines and chemokines, such as IL-8, which is also referred to as CXCL-8. In general, the computer program XL fit was used for data analysis, including non-linear regression analysis. The half maximal inhibitory concentration (IC50) was used as the measure of a compound's effectiveness in the assays. IC50 values were determined using the following logistic equation Y=min+(max−min)/(1+(X/IC50^−hillslpoe), where Y is the value at the compound concentration, X. The concentration response curve fitting was conducted using GraphPad Prism version 6.00 software.
ALPK1 kinase activity was measured in an in vitro assay using ADP-Heptose as the ALPK1 ligand and activator of its kinase activity and TIFA protein as the ALPK1 phosphorylation substrate. Since phosphorylated TIFA proteins oligomerize, Homogeneous Time-Resolved Fluorescence (HTRF) was used to measure protein:protein interaction between HA-tagged TIFA proteins as an indicator of TIFA phosphorylation.
In brief, dose-response studies were performed with HEK293 cells cultured in Dulbecco's Modified Eagle Medium (DMEM) supplemented 10% fetal bovine serum (FBS, Hyclone™) containing antibiotics (pen/strep, G418) in 384-well assay plates. Each well contained 0.1 mg TIFA, ALPK1 (2 nM final concentration in reaction mixture) and kinase buffer (100 mM of HEPES pH 7.4, 4 mM DTT, 40 mM MgCl2, 20 mM of β-Glycerol phosphate disodium salt, 0.4 mM of Na3VO4, 0.16 mg/mL). Titrations of the test compounds were prepared in dimethylsulphoxide (DMSO). The reaction was initiated by addition of ATP and ADP-Heptose.
For HTRF, samples were incubated with a Tb cryptate-labeled anti-HA antibody for capturing HA-tagged proteins according to the manufacturer's instructions (PerkinElmer™, CisBio™) and the fluorescence signal was quantified (Tecan Infinite F NANO+). HTRF signals were calculated as the HTRF ratio (ratio of fluorescence measured at 665 nm and 620 nm)×104 (thereby using the signal at 620 nm as an internal standard).
IC50 values were determined using 3- or 4-parameter logistic equation using GraphPad Prism version 6.00. The reference compound, A027, was used as a positive control for each plate.
In the case of `COc1ccc(C(C)(C)c2csc(NC(=O)NCc3cccc(N4CCNCC4)n3)n2)cc1` [Example A043, 1-(4-(2-(4-methoxyphenyl)propan-2-yl)thiazol-2-yl)-3-((6-(piperazin-1-yl)pyridin-2-yl)methyl)urea], the IC50 is reported as 165 nM. With `CC(C)(c1ccc(Br)cn1)c1csc(NC(=O)NCc2ccc(N3CCNCC3)c(F)c2)n1` [Example A057, 1-(4-(2-(5-bromopyridin-2-yl)propan-2-yl)thiazol-2-yl)-3-(3-fluoro-4-(piperazin-1-yl)benzyl)urea] the IC50 was 246 nM. Compound `CCOc1ccc(C(C)(C)c2csc(NC(=O)NCc3ccc(N4CCNCC4)cc3)n2)cc1` [Example A059, 1-(4-(2-(4-ethoxyphenyl)propan-2-yl)thiazol-2-yl)-3-(4-(piperazin-1-yl)benzyl)urea] has an IC50 of 269 nM. `CC(C)(c1ccc(Cl)cc1)c1csc(NC(=O)NCc2cnc(N3CCC(N)C3)nc2)n1` (centres unmarked) [Example A068, 1-((2-(3-aminopyrrolidin-1-yl)pyrimidin-5-yl)methyl)-3-(4-(2-(4-chlorophenyl)propan-2-yl)thiazol-2-yl)urea] gave an IC50 of 269 nM. `COc1ccc(C(C)(C)c2csc(NC(=O)NCc3ccc(N4CCC(O)C4)cc3)n2)cc1` (centres unmarked) [Example A069, 1-(4-(3-hydroxypyrrolidin-1-yl)benzyl)-3-(4-(2-(4-methoxyphenyl)propan-2-yl)thiazol-2-yl)urea] showed an IC50 of 269 nM. `COc1ccc(C(C)(C)c2csc(NC(=O)NCCCC(=O)NC3CCNCC3)n2)cc1` [Example A071, 4-(3-(4-(2-(4-methoxyphenyl)propan-2-yl)thiazol-2-yl)ureido)-N-(piperidin-4-yl)butanamide] gave an IC50 of 64 nM. With `COc1ccc(C(C)(C)c2csc(NC(=O)NCC(=O)CO)n2)cc1` [Example A074, 1-(3-hydroxy-2-oxopropyl)-3-(4-(2-(4-methoxyphenyl)propan-2-yl)thiazol-2-yl)urea] the IC50 was 61 nM. Work on `CC(C)(c1ccc(Br)cc1)c1csc(NC(=O)NCc2cnc(N3CCC(N)C3)nc2)n1` (centres unmarked) [Example A078, 1-((2-(3-aminopyrrolidin-1-yl)pyrimidin-5-yl)methyl)-3-(4-(2-(4-bromophenyl)propan-2-yl)thiazol-2-yl)urea] yielded an IC50 of 8 nM. In the case of `Cc1nc(CNC(=O)Nc2nc(C(C)(C)c3ccc(Br)cc3)cs2)cc(N2CCNCC2)n1` [Example A095, 1-(4-(2-(4-bromophenyl)propan-2-yl)thiazol-2-yl)-3-((2-methyl-6-(piperazin-1-yl)pyrimidin-4-yl)methyl)urea], the IC50 is reported as 32 nM. `COc1ccc(CNC(=O)Nc2nc(C(C)(C)c3ccc(Br)cc3)cs2)cc1F` [Example A107, 1-(4-(2-(4-bromophenyl)propan-2-yl)thiazol-2-yl)-3-(3-fluoro-4-methoxybenzyl)urea] gave an IC50 of 216 nM. In the case of `COc1ccc(C(C)(C)c2csc(NC(=O)NCc3ccc(NCCO)cc3)n2)cc1` [Example A109, 1-(4-((2-hydroxyethyl)amino)ben-zyl)-3-(4-(2-(4-methoxyphenyl)propan-2-yl)thiazol-2-yl)urea], the IC50 is reported as 146 nM. For `CC(C)(c1ccc(Br)cc1)c1csc(NC(=O)NCc2cnc(N3CCNC(=O)C3)c(F)c2)n1` [Example A112, 1-(4-(2-(4-bromophenyl)propan-2-yl)thiazol-2-yl)-3-((5-fluoro-6-(3-oxopiperazin-1-yl)pyridin-3-yl)methyl)urea], the IC50 was 334 nM. With `CC(C)(c1ccc(Br)cc1)c1csc(NC(=O)NCc2cnc(N3CCNC(=O)C3)nc2)n1` [Example A113, 1-(4-(2-(4-bromophenyl)propan-2-yl)thiazol-2-yl)-3-((2-(3-oxopiperazin-1-yl)pyrimidin-5-yl)methyl)urea] the IC50 was 126 nM. `COc1ccc(C(C)(C)c2csc(NC(=O)NCCCC(N)=O)n2)cc1` [Example A114, 4-(3-(4-(2-(4-methoxyphenyl)propan-2-yl)thiazol-2-yl)ureido)butanamide] was tested, and the IC50 was 260 nM. `CNC(=O)Nc1nc(C(C)(C)c2ccc(OC)cc2)cs1` [Example A143, 1-(4-(2-(4-methoxyphenyl)propan-2-yl)thiazol-2-yl)-3-methylurea] was tested, and the IC50 was 53 nM. `O=C(NCc1cnc(N2CCNCC2)nc1)Nc1nc(C2(c3ccc(Br)cc3)CCCC2)cs1` [Example A180, 1-(4-(1-(4-bromophenyl)cyclopent-yl)thiazol-2-yl)-3-((2-(piperazin-1-yl)pyrimidin-5-yl)methyl)urea] gave an IC50 of 45 nM. Compound `COc1ccc(C(C)(C)c2csc(NC(=O)NCc3ccc(N4CCC(N)C4)cc3)n2)cc1` (centres unmarked) [Example A184, 1-(4-(3-aminopyrrolidin-1-yl)benzyl)-3-(4-(2-(4-methoxyphenyl)propan-2-yl)thiazol-2-yl)urea] has an IC50 of 242 nM. `COc1ccc(C(C)(C)c2csc(NC(=O)NCc3ccc(N4CCNCC4)c(C(=O)N(C)C)c3)n2)cc1` [Example A185, 5-((3-(4-(2-(4-methoxyphenyl)propan-2-yl)thiazol-2-yl)ureido)methyl)-N,N-dimethyl-2-(piperazin-1-yl)benzamide] gave an IC50 of 56 nM. With `COc1ccc(C(C)(C)c2csc(NC(=O)NCCCCN)c2)cc1` [Example A188, 1-(4-aminobutyl)-3-(4-(2-(4-methoxyphenyl)propan-2-yl)thiophen-2-yl)urea] the IC50 was 59 nM. `CC(C)(c1ccc(Br)cc1)c1csc(NC(=O)NCc2ccc(N3CCCNCC3)c(F)c2)n1` [Example A197, 1-(4-(1,4-diazepan-1-yl)-3-fluorobenzyl)-3-(4-(2-(4-bromophenyl)propan-2-yl)thiazol-2-yl)urea] gave an IC50 of 67 nM. With `COc1ccc(C(C)(C)c2csc(NC(=O)NCc3ccc(N4CCC(N)C4)nc3)n2)cc1` (centres unmarked) [Example A199, 1-((6-(3-aminopyrrolidin-1-yl)pyridin-3-yl)methyl)-3-(4-(2-(4-methoxyphenyl)propan-2-yl)thiazol-2-yl)urea] the IC50 was 34 nM. `CC(C)(c1ccc(Br)cc1)c1csc(NC(=O)NCc2cnc(NCCN3CCNCC3)nc2)n1` [Example A206, 1-(4-(2-(4-bromophenyl)propan-2-yl)thiazol-2-yl)-3-((2-((2-(piperazin-1-yl)ethyl)amino)pyrimidin-5-yl)methyl)urea] was tested, and the IC50 was 68 nM. `COc1ccc(C(C)(C)c2csc(NC(=O)NCc3cnc(N4CCNCC4)c(C(N)=O)c3)n2)cc1` [Example A209, 5-((3-(4-(2-(4-methoxyphenyl)propan-2-yl)thiazol-2-yl)ureido)methyl)-2-(piperazin-1-yl)nicotinamide] showed an IC50 of 43 nM. With `C#C[C@](C)(c1ccc(OC)cc1)c1csc(NC(=O)N2CC(CO)C2)n1` [Example A255, (R)-3-(hydroxymethyl)-N-(4-(2-(4-methoxyphenyl)but-3-yn-2-yl)thiazol-2-yl)azetidine-1-carboxamide] the IC50 was 688 nM. For `C#CC(C)(c1ccc(Cl)cc1)c1csc(NC(=O)N(C)CCO)n1` (centres unmarked) [Example A266, 3-(4-(2-(4-chlorophenyl)but-3-yn-2-yl)thiazol-2-yl)-1-(2-hydroxyethyl)-1-methylurea], the IC50 was 546 nM. `C#CC(C)(c1ccc(Cl)cc1)c1csc(NC(=O)N(CCO)CCO)n1` (centres unmarked) [Example A267, 3-(4-(2-(4-chlorophenyl)but-3-yn-2-yl)thiazol-2-yl)-1,1-bis(2-hydroxyethyl)urea] was tested, and the IC50 was 171 nM.

Same assay, conditions: ALPK1 2 nM, TIFA substrate, ADP-Heptose activator, HTRF readout
`COc1ccc(C(C)(C)c2csc(NC(=O)c3ccc(N4CCNCC4)cc3)n2)cc1` [Example B001, N-(4-(2-(4-methoxyphenyl)propan-2-yl)thiazol-2-yl)-4-(piperazin-1-yl)benzamide] was tested, and the IC50 was 123 nM. With `CC(C)(c1ccc(Br)cc1)c1csc(NC(=O)c2ccc3[nH]ccc3c2)n1` [Example B002, N-(4-(2-(4-bromophenyl)propan-2-yl)thiazol-2-yl)-1H-indole-5-carboxamide] the IC50 was 206 nM. `CC(C)(c1ccc(Br)cc1)c1csc(NC(=O)c2ccc(C(N)=O)cc2)n1` [Example B003, N-(4-(2-(4-bromophenyl)propan-2-yl)thiazol-2-yl)terephthalamide] showed an IC50 of 192 nM. With `COc1ccc(C(C)(C)c2csc(NC(=O)c3cccc(N4CCNCC4)c3)n2)cc1` [Example B004, N-(4-(2-(4-methoxyphenyl)propan-2-yl)thiazol-2-yl)-3-(piperazin-1-yl)benzamide] the IC50 was 211 nM. With `COc1ccc(C(C)(C)c2csc(NC(=O)c3cccc(CN4CCNCC4)c3)n2)cc1` [Example B005, N-(4-(2-(4-methoxyphenyl)propan-2-yl)thiazol-2-yl)-3-(piperazin-1-ylmethyl)benzamide] the IC50 was 215 nM. In the case of `COc1ccc(C(C)(C)c2csc(NC(=O)c3ccc(N4CCN(CCO)CC4)cc3)n2)cc1` [Example B006, 4-(4-(2-hydroxyethyl)piperazin-1-yl)-N-(4-(2-(4-methoxyphenyl)propan-2-yl)thiazol-2-yl)benzamide], the IC50 is reported as 595 nM.
